{"source": "ChEMBL document CHEMBL4665799", "about": "“Synthesis and biological evaluation of diaryl urea derivatives as FLT3 inhibitors” (Bioorg Med Chem Lett, 2020)", "key": {"[1]": {"system": "Receptor-type tyrosine-protein kinase FLT3 (Homo sapiens), P36888 [UNDEFINED MUTATION]", "sequence (P36888 whole entry, looked up, change not shown)": "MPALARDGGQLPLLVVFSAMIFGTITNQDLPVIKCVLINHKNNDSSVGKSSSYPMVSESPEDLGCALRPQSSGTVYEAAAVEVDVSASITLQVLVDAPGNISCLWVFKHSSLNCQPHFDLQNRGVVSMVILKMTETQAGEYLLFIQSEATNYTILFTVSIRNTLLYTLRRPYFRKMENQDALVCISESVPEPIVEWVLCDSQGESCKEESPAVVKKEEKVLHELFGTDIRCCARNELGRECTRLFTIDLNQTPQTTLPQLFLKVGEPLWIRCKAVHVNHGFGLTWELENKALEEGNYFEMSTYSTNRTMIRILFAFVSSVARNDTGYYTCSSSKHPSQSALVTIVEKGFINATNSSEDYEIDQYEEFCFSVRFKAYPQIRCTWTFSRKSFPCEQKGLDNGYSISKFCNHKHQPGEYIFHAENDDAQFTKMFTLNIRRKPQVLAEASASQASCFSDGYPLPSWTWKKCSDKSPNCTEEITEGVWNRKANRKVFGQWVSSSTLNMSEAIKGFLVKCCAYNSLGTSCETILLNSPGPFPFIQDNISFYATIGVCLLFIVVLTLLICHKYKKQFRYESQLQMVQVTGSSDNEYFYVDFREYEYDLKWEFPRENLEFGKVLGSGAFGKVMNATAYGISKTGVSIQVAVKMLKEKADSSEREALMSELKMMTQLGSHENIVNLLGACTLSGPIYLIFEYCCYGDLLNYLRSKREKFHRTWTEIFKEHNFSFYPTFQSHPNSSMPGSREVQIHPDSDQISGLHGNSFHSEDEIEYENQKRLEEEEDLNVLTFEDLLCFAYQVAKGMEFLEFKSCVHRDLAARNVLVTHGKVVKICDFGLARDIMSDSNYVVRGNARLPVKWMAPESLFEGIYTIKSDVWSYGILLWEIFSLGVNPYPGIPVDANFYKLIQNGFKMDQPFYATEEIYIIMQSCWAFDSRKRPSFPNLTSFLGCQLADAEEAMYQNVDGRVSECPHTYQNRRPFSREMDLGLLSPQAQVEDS", "details": "dose 500.0 nM", "description": "Inhibition of FLT3 ITD mutant (unknown origin) at 500 nM relative to control"}, "[2]": {"target": "Receptor-type tyrosine-protein kinase FLT3 (Homo sapiens, UniProt P36888, ITD)", "sequence (P36888 whole entry, looked up, change not shown)": "as above", "description": "Inhibition of FLT3 ITD mutant (unknown origin)"}, "MV4-11 [3]": {"system": "MV4-11", "experiment": "cells", "details": "Homo sapiens", "description": "Antiproliferative activity against human MV4-11 cells assessed as reduction in cell viability"}, "MV4-11 [4]": {"system": "MV4-11", "experiment": "Potency index, ratio of quizartinib IC50 to test compound IC50 for antiproliferative activity against human MV4-11 cells assessed as reduction in cell viability", "assay_type": "functional"}}, "note": "pIC50: −log10 of the molar value."}
{"smiles": "Cc1cc(NC(=O)Nc2ccc(C(=O)Nc3ccc(-c4cn5c(n4)sc4cc(OCCN6CCOCC6)ccc45)cc3)cc2)no1", "values": [{"measurement": "inhibition", "setting": "[1]", "result": 29, "unit": "%"}]}
{"smiles": "CC(C)(C)c1cc(NC(=O)Nc2ccc(CC(=O)Nc3ccc(-c4cn5c(n4)sc4cc(OCCN6CCOCC6)ccc45)cc3)cc2)on1", "values": [{"measurement": "inhibition", "setting": "[1]", "result": 38.5, "unit": "%"}]}
{"smiles": "COc1ccc2nc(NC(=O)Cc3ccc(NC(=O)Nc4cc(C(C)(C)C)on4)cc3)sc2c1", "values": [{"measurement": "inhibition", "setting": "[1]", "result": 2.5, "unit": "%"}]}
{"smiles": "Cc1cc(NC(=O)Nc2ccc3c(c2)sc2nc(-c4ccc(OCCN5CCOCC5)cc4)cn23)no1", "values": [{"measurement": "pIC50", "setting": "[2]", "result": 7.08}, {"measurement": "inhibition", "setting": "[1]", "result": 82.5, "unit": "%"}, {"measurement": "pIC50", "setting": "MV4-11 [3]", "result": 7.40}]}
{"smiles": "Cc1cc(NC(=O)Nc2ccc(-c3cn4c(n3)sc3cc(OCCN5CCOCC5)ccc34)cc2)on1", "values": [{"measurement": "pIC50", "setting": "[2]", "result": 6.80}, {"measurement": "inhibition", "setting": "[1]", "result": 66.7, "unit": "%"}, {"measurement": "pIC50", "setting": "MV4-11 [3]", "result": 7.48}]}
{"smiles": "COc1ccc2c(c1)sc1nc(-c3ccc(NC(=O)Nc4cc(C(C)(C)C)no4)cc3)cn12", "values": [{"measurement": "pIC50", "setting": "[2]", "result": 7.69}, {"measurement": "inhibition", "setting": "[1]", "result": 97.2, "unit": "%"}, {"measurement": "pIC50", "setting": "MV4-11 [3]", "result": 8.71}]}
{"smiles": "CC(C)(C)c1cc(NC(=O)Nc2ccc(-c3cn4c(n3)sc3cc(OCCN5CCOCC5)ccc34)cc2)on1", "values": [{"measurement": "Ratio IC50", "setting": "MV4-11 [4]", "result": 4.75}, {"measurement": "pIC50", "setting": "[2]", "result": 8.25}, {"measurement": "inhibition", "setting": "[1]", "result": 99.6, "unit": "%"}, {"measurement": "pIC50", "setting": "MV4-11 [3]", "result": 9.75}]}
{"smiles": "Cc1cc(NC(=O)Nc2ccc(-c3cn4c(n3)sc3cc(OCCN5CCOCC5)ccc34)cc2)no1", "values": [{"measurement": "inhibition", "setting": "[1]", "result": 79.9, "unit": "%"}]}
{"smiles": "COc1ccc2c(c1)sc1nc(-c3ccc(NC(=O)Nc4cc(C)on4)cc3)cn12", "values": [{"measurement": "inhibition", "setting": "[1]", "result": 67.3, "unit": "%"}]}
{"smiles": "CC(C)(C)c1cc(NC(=O)Nc2ccc(C(=O)Nc3ccc(-c4cn5c(n4)sc4cc(OCCN6CCOCC6)ccc45)cc3)cc2)on1", "values": [{"measurement": "inhibition", "setting": "[1]", "result": 41.9, "unit": "%"}]}
{"smiles": "Cc1cc(NC(=O)Nc2ccc(CC(=O)Nc3ccc(-c4cn5c(n4)sc4cc(OCCN6CCOCC6)ccc45)cc3)cc2)no1", "values": [{"measurement": "inhibition", "setting": "[1]", "result": 35.8, "unit": "%"}]}
{"smiles": "CC(C)(C)c1cc(NC(=O)Nc2ccc3c(c2)sc2nc(-c4ccc(OCCN5CCOCC5)cc4)cn23)on1", "values": [{"measurement": "pIC50", "setting": "[2]", "result": 8.17}, {"measurement": "inhibition", "setting": "[1]", "result": 99.3, "unit": "%"}, {"measurement": "pIC50", "setting": "MV4-11 [3]", "result": 9.21}]}
{"smiles": "Cc1cc(NC(=O)Nc2ccc(CC(=O)Nc3ccc(-c4cn5c(n4)sc4cc(OCCN6CCOCC6)ccc45)cc3)cc2)on1", "values": [{"measurement": "inhibition", "setting": "[1]", "result": 45.9, "unit": "%"}]}
{"smiles": "CC(C)(C)c1cc(NC(=O)Nc2ccc(CC(=O)Nc3ccc(-c4cn5c(n4)sc4cc(OCCN6CCOCC6)ccc45)cc3)cc2)no1", "values": [{"measurement": "inhibition", "setting": "[1]", "result": 36, "unit": "%"}]}
{"smiles": "CC(C)(C)c1cc(NC(=O)Nc2ccc(C(=O)Nc3ccc(-c4cn5c(n4)sc4cc(OCCN6CCOCC6)ccc45)cc3)cc2)no1", "values": [{"measurement": "inhibition", "setting": "[1]", "result": 35, "unit": "%"}]}
{"smiles": "COc1ccc2c(c1)sc1nc(-c3ccc(NC(=O)Nc4cc(C)no4)cc3)cn12", "values": [{"measurement": "inhibition", "setting": "[1]", "result": 52.6, "unit": "%"}]}
{"smiles": "COc1ccc2nc(NC(=O)Cc3ccc(NC(=O)Nc4cc(C)no4)cc3)sc2c1", "values": [{"measurement": "inhibition", "setting": "[1]", "result": 4.5, "unit": "%"}]}
{"smiles": "Cc1cc(NC(=O)Nc2ccc(C(=O)Nc3ccc(-c4cn5c(n4)sc4cc(OCCN6CCOCC6)ccc45)cc3)cc2)on1", "values": [{"measurement": "inhibition", "setting": "[1]", "result": 28.1, "unit": "%"}]}
{"smiles": "Cc1cc(NC(=O)Nc2ccc3c(c2)sc2nc(-c4ccc(OCCN5CCOCC5)cc4)cn23)on1", "values": [{"measurement": "pIC50", "setting": "[2]", "result": 6.96}, {"measurement": "inhibition", "setting": "[1]", "result": 76.9, "unit": "%"}, {"measurement": "pIC50", "setting": "MV4-11 [3]", "result": 7.05}]}
{"smiles": "CC(C)(C)c1cc(NC(=O)Nc2ccc3c(c2)sc2nc(-c4ccc(OCCN5CCOCC5)cc4)cn23)no1", "values": [{"measurement": "pIC50", "setting": "[2]", "result": 8.08}, {"measurement": "inhibition", "setting": "[1]", "result": 98.8, "unit": "%"}, {"measurement": "pIC50", "setting": "MV4-11 [3]", "result": 9.11}]}
{"smiles": "COc1ccc2nc(NC(=O)Cc3ccc(NC(=O)Nc4cc(C)on4)cc3)sc2c1", "values": [{"measurement": "inhibition", "setting": "[1]", "result": -2, "unit": "%"}]}
{"smiles": "COc1ccc2nc(NC(=O)Cc3ccc(NC(=O)Nc4cc(C(C)(C)C)no4)cc3)sc2c1", "values": [{"measurement": "inhibition", "setting": "[1]", "result": 6.4, "unit": "%"}]}
